Patent publication US20260207604A1, “COMPOUND AND USE THEREOF” (ONQUALITY PHARMACEUTICALS CHINA LTD., priority 2022, published 2026)
Like-named read-outs stand apart in the source and are kept apart here.

Experiments:
CDK4/cyclin D = CDK4/cyclin D (Homo sapiens, UniProt P11802); test: KinaseProfile radiometric protein kinase assay, CDK4/cyclin D; format: biochemical
Description: (§1) The KinaseProfile radiometric protein kinase assay was used to evaluate the inhibitory activity of the compounds against CDK2/cyclin E, CDK4/cyclin D, CDK6/cyclin D, CDK7/cyclin H and CDK9/cyclin T.
(§2) The compounds were prepared in 100% DMSO at a final 50× stock concentration. The working stock solution was added as the first component to the assay wells. CDK2/cyclin E, CDK4/cyclin D, CDK6/cyclin D, CDK7/cyclin H, and CDK9/cyclin T were added in their respective kinase buffers: (CDK4: 8 mM MOPS pH 7.0, 0.2 mM EDTA, 0.03% BSA, 0.03% Tween 20, 20 mM DTT, and 0.2 mg/ml Rb fragment, 10 mM Magnesium acetate; CDK2, CDK6: 8 mM MOPS pH 7.0, 0.2 mM EDTA, 0.1 mg/mL histone H1, 10 mM Magnesium acetate; CDK7: 8 mM MOPS pH 7.0, 0.2 mM EDTA, 500 μM peptide, 10 mM Magnesium acetate; CDK9: 8 mM MOPS pH 7.0, 0.2 mM EDTA, 100 μM […], 10 mM Magnesium acetate) and [γ-^33 P-ATP] was included in the reaction mixture. The reaction was initiated by the addition of the Mg/ATP mixture and incubated at room temperature for 40 minutes. The reaction was terminated by the addition of 0.5% phosphoric acid. Then, 10 μL of the reaction mixture was spotted onto P30 filter pads, washed four times (1 minute each) with 0.425% phosphoric acid, followed by a single wash with methanol. The pads were then dried and counted. The data were recorded, inhibition rates were calculated, and IC50 values were determined accordingly. Table 2 summarizes the in vitro enzymatic inhibitory activity of the compounds of the present application.

CDK2/cyclin E = CDK2/cyclin E (Homo sapiens, UniProt P24941); test: KinaseProfile radiometric protein kinase assay, CDK2/cyclin E; format: biochemical
Description: as §1, §2

[1] = system: 5-FU-induced diarrhea model; test: 5-FU-induced diarrhea model, 5-FU 1-day model; format: in vivo, Balb/c mice; conditions: 5-FU 175 mg/kg once a day, mice
Excerpt: (§3) The 5-FU-induced diarrhea model was used as an experimental model of the present invention to evaluate the in vivo activity of the compounds.
Balb/c mice (20-25 g, 7-8 weeks old, Jihui) were acclimated for one week and then randomly assigned to 3 groups (n=10 per group): control group, 5-FU group, and CDK inhibitor group. The control group received the same vehicle as the CDK inhibitor group by oral gavage, followed by injection of the same vehicle as the 5-FU group. The 5-FU group received the same vehicle by oral gavage as the CDK inhibitor group, followed by 5-FU injection. The CDK inhibitor group received oral administration of the CDK inhibitor, followed by 5-FU injection. From day 1 to day 7, the severity of diarrhea was assessed for each mouse according to the diarrhea scoring system.
(§4) The diarrhea scoring system was based on the method by Akinobu Kurita (Cancer Chemother Pharmacol 2000; 46:211-20), Grade 0: normal stool; Grade 1: mild diarrhea, slightly soft stool and wet stool; Grade 2: moderate diarrhea, loose stool with slight perianal staining; Grade 3: severe diarrhea, loose watery stool with severe perianal staining.
(§5) The diarrhea relief rate (%) was calculated as follows: […]

[2] = system: MCF-7 human breast cancer cells; test: Cell viability assay (CELLTITER-GLO); format: cell-based; conditions: MCF7, 168 h, MCF-7 cells, 7 days
Description: The cell viability of MCF-7 human breast cancer cells under standard culture conditions was assessed using the CELLTITER-GLO assay. MCF-7 cells were seeded at 3,000 cells per well in 96-well plates and incubated overnight in a CO2 incubator. The next day, serial dilutions of Compound 1 at various concentrations were added to the wells. The plates were returned to the incubator and cultured for 7 days. After 7 days, the plates were equilibrated at room temperature for 30 minutes. Subsequently, 100 μL of CELLTITER-GLO detection solution was added. The cells were mixed on an orbital shaker for 5 min and then incubated for additional 10 min. The plate was read with an ENVISION reader. Data were processed and analyzed to determine the IC50 values.

[3] = system: Irinotecan-induced constipation model; test: Irinotecan-induced constipation model; format: in vivo, Sprague-Dawley rats; conditions: irinotecan 260 mg/kg once a day, 1 day, rats
Excerpt: Sprague-Dawley rats (180-200 g, 7-8 weeks old, Jihui) were acclimated for 7 days and randomly divided into three groups: control group, irinotecan group, and CDK inhibitor group, with 10 rats per group. The control group received the same vehicle orally as the CDK inhibitor group, followed by an injection of the same vehicle as the irinotecan group; the irinotecan group received the same oral vehicle as the CDK inhibitor group, followed by an injection of irinotecan; the CDK inhibitor group received the CDK inhibitor orally, followed by an injection of irinotecan.
From Day 2 to Day 7, the degree of constipation was assessed for each rat based on the following score:
Constipation assessment: Feces excreted within a 3-hour period were collected and evaluated for morphology and weight using an electronic balance. Stool reduction rate was calculated according to the method of Ji Eun Kim (Lab Anim Res. 2016 December; 32(4): 231-240). Stool reduction rate (%)=(Control group−Irinotecan or CDK inhibitor group)/Control group×100%.
The constipation relief rate of the CDK inhibitor was calculated as follows: Relief rate (%)=([…])/Irinotecan group stool reduction rate×100%.

CDK7/cyclin H = CDK7/cyclin H (Homo sapiens, UniProt P50613); test: KinaseProfile radiometric protein kinase assay, CDK7/cyclin H; format: biochemical
Chain of CDK7/cyclin H (P50613 whole entry): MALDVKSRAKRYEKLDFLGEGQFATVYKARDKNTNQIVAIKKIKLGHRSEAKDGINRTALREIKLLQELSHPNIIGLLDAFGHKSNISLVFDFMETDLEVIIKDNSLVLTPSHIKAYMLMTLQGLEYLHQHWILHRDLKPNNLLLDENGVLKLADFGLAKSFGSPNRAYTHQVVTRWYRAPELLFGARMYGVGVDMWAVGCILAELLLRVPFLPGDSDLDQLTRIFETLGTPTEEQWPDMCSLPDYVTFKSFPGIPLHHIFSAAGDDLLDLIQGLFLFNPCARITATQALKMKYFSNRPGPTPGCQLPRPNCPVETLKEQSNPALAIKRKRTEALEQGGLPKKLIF
Chain of CDK7/cyclin H (P51946 whole entry partner): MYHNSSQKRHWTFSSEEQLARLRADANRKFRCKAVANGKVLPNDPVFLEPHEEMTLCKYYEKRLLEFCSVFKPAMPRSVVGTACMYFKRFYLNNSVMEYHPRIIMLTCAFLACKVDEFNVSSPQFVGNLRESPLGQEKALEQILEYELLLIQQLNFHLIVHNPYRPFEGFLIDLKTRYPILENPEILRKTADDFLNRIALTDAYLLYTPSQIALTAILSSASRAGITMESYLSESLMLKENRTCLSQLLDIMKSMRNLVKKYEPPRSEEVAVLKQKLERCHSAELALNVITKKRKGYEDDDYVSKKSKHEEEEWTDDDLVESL
Chain of CDK7/cyclin H (P51948 whole entry partner): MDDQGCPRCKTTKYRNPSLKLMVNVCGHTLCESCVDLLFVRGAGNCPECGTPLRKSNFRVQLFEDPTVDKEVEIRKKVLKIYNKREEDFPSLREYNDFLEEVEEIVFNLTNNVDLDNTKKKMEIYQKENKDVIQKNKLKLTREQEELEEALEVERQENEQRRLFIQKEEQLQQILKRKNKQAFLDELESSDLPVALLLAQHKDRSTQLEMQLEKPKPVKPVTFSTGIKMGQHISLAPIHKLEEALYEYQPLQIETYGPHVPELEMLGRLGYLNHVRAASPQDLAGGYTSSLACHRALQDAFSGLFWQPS
Description: as §1, §2

CDK9/cyclin T = CDK9/cyclin T (Homo sapiens, UniProt P50750); test: KinaseProfile radiometric protein kinase assay, CDK9/cyclin T; format: biochemical
Chain of CDK9/cyclin T (P50750 whole entry): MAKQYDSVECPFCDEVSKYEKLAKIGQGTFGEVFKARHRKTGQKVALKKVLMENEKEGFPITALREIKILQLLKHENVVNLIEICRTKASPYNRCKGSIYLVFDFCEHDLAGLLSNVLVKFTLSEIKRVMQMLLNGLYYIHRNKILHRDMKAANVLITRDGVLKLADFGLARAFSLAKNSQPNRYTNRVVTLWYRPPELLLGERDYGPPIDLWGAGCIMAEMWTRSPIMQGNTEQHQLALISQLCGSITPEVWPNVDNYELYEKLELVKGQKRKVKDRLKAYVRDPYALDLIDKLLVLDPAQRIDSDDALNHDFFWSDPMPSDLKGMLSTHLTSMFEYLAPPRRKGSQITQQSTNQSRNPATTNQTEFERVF
Chain of CDK9/cyclin T (O60563 whole entry partner): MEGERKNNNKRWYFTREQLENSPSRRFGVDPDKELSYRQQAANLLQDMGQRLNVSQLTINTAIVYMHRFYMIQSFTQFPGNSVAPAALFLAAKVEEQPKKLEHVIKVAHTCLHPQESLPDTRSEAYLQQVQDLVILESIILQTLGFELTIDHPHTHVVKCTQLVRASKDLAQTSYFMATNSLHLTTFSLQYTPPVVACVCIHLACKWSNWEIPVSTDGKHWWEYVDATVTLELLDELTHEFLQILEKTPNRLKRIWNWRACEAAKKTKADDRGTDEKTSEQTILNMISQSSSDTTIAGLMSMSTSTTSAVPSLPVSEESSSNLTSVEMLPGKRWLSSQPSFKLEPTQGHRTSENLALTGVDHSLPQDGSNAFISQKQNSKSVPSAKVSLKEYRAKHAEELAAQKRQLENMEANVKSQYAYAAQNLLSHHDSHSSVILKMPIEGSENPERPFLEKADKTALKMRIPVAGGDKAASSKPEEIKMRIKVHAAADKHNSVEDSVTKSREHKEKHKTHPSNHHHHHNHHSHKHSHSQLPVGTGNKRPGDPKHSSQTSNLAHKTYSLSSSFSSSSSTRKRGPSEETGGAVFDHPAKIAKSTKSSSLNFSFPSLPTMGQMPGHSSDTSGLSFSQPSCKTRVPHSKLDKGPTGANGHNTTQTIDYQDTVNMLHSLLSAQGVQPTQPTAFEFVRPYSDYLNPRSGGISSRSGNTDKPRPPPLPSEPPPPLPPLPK
Description: as §1, §2

CDK6/cyclin D = CDK6/cyclin D (Homo sapiens, UniProt Q00534); test: KinaseProfile radiometric protein kinase assay, CDK6/cyclin D; format: biochemical
Chain of CDK6/cyclin D (Q00534 whole entry): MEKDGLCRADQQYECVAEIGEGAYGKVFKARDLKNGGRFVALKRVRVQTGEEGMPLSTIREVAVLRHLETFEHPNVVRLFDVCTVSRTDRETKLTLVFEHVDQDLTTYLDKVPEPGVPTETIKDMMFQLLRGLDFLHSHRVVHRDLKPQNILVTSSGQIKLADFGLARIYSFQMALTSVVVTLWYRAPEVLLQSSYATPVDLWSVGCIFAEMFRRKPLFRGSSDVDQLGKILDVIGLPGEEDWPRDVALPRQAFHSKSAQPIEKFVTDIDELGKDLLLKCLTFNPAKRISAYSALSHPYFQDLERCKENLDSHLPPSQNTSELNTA
Chain of CDK6/cyclin D (P30281 whole entry partner): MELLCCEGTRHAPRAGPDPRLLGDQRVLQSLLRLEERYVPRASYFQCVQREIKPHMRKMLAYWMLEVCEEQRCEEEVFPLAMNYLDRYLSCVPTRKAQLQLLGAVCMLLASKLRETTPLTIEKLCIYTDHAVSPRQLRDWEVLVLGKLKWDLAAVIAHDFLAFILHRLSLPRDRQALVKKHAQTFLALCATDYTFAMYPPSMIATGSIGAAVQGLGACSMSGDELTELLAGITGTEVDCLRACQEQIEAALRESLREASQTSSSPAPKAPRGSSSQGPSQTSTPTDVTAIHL
Description: as §1, §2

[4] = system: 5-FU-induced diarrhea model; test: 5-FU-induced diarrhea model, 5-FU 3-day model; format: in vivo, Balb/c mice; conditions: 5-FU 60 mg/kg once a day for 3 days, mice
Description: as §3
Balb/c mice (20-25 g, 7-8 weeks old, Jihui) were acclimated for one week and then randomly assigned to 3 groups (n=10 per group): control group, 5-FU group, and CDK inhibitor group. […] […] […] From Day 1 to Day 7, diarrhea severity was assessed daily for each mouse according to the diarrhea scoring system.
as §4, §5

[5] = 25 mg/kg oral, 6 hours before and 6 hours after 5-FU
[6] = 25 mg/kg oral, 6 hours before irinotecan and 6 hours after irinotecan
[7] = 10 mg/kg oral twice a day for 3.5 days
[8] = 25 mg/kg oral twice a day for 3.5 days
[9] = 50 mg/kg oral twice a day for 3 days
[10] = 100 mg/kg oral twice a day for 3 days
[11] = 5 mg/kg oral, 4 hours before irinotecan and 8 hours after irinotecan
[12] = 50 mg/kg oral, 4 hours before irinotecan and 8 hours after irinotecan
[13] = 10 mg/kg oral twice a day for 3 days

Chain of CDK4/cyclin D (P11802 whole entry): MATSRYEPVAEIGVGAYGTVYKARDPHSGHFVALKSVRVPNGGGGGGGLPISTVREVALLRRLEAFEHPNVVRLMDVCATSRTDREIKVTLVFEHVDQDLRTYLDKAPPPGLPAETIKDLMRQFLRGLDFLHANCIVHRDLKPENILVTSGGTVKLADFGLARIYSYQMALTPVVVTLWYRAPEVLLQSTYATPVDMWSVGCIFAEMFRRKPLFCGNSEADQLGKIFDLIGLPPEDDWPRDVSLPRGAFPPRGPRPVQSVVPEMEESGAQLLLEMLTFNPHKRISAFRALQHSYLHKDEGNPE
Chain of CDK4/cyclin D (P30281 whole entry partner): as the sequence (P30281 whole entry partner) above

| Compound | IC50 (CDK4/cyclin D) [nM] | IC50 (CDK2/cyclin E) [µM] | diarrhea relief rate [1, 5] [%] | IC50 ([2]; read-out: Absolute IC 50) [nM] | IC50 ([2]; read-out: Relative IC 50) [nM] | constipation relief rate [3, 6] [%] | IC50 (CDK7/cyclin H) [µM] | IC50 (CDK9/cyclin T) [µM] | IC50 (CDK6/cyclin D) [nM] | diarrhea relief rate [4, 7] [%] | diarrhea relief rate [4, 8] [%] | diarrhea relief rate [4, 9] [%] | diarrhea relief rate [4, 10] [%] | constipation relief rate [3, 11] [%] | constipation relief rate [3, 12] [%] | diarrhea relief rate [4, 13] [%] | other results |
| --- | --- | --- | --- | --- | --- | --- | --- | --- | --- | --- | --- | --- | --- | --- | --- | --- | --- |
| CC(=O)c1c(C)c2cnc(Nc3ccc(N4CCN(S(=O)(=O)NCCCN)CC4)cn3)nc2n(C2CCCC2)c1=O [Compound 4] | < 50 | > 3 | 80 | < 1000 | < 1000 | 50 | > 3 | > 3 | < 50 | 50 | 55 | 60 | 40 | – | – | – | diarrhea relief rate ([1]; 10 mg/kg oral, 8 hours before 5-FU and 4 hours after 5-FU): 25%; diarrhea relief rate ([1]; 50 mg/kg oral, 12 hours before 5-FU): 70%; diarrhea relief rate ([1]; 10 0 mg/kg oral, 8 hours before 5-FU and 4 hours after 5-FU): 25%; constipation relief rate ([3]; 10 mg/kg oral, 4 hours before irinotecan and 8 hours after irinotecan): 40%; constipation relief rate ([3]; 50 mg/kg oral, 6 hours before irinotecan and 6 hours after irinotecan): 70%; constipation relief rate ([3]; 100 mg/kg oral, 8 hours before irinotecan and 4 hours after irinotecan): 40%; constipation relief rate ([3]; 100 mg/kg oral, 12 hours before irinotecan): 30%; diarrhea relief rate ([4]; 5 mg/kg oral twice a day for 3 days): 30%; diarrhea relief rate ([4]; 10 mg/kg oral twice a day for 4 days): 40% |
| CC(=O)c1c(C)c2cnc(Nc3ccc(N4CCN(S(=O)(=O)NCC(C)CN)CC4)cn3)nc2n(C2CCCC2)c1=O (stereo not drawn) [Compound 5] | < 100 | > 3 | 40 | < 10000 | < 10000 | 40 | > 10 | > 3 | < 50 | 75 | – | 40 | 50 | 25 | 80 | 40 | diarrhea relief rate ([1]; 10 mg/kg oral, 12 hours before 5-FU and 0 hours after 5-FU): 25%; diarrhea relief rate ([1]; 50 mg/kg oral, 8 hours before 5-FU and 4 hours after 5-FU): 30%; diarrhea relief rate ([1]; 100 mg/kg oral, 4 hours before 5-FU and 8 hours after 5-FU): 40%; constipation relief rate ([3]; 50 mg/kg oral, 8 hours before irinotecan and 4 hours after irinotecan): 60%; constipation relief rate ([3]; 100 mg/kg oral, 4 hours before irinotecan and 8 hours after irinotecan): 50%; constipation relief rate ([3]; 100 mg/kg oral, 10 hours before irinotecan and 2 hours after irinotecan): 40%; diarrhea relief rate ([4]; 30 mg/kg oral twice a day for 4 days): 30%; diarrhea relief rate ([4]; 60 mg/kg oral twice a day for 3.5 days): 50% |
| CC(=O)c1c(C)c2cnc(Nc3ccc(N4CCN(S(=O)(=O)NCC(C)(C)N)CC4)cn3)nc2n(C2CCCC2)c1=O [Compound 2] | < 50 | > 10 | – | < 500 | < 1000 | – | > 3 | > 1 | < 50 | – | 50 | 60 | – | 25 | 80 | 25 | diarrhea relief rate ([1]; 25 mg/kg oral, 8 hours before 5-FU and 4 hours after 5-FU): 60%; diarrhea relief rate ([1]; 25 mg/kg oral, 12 hours before and 12 hours after 5-FU): 40%; diarrhea relief rate ([1]; 50 mg/kg oral, 6 hours before and 6 hours after 5-FU): 60%; diarrhea relief rate ([1]; 100 mg/kg oral, 24 hours before 5-FU and 0 hours after 5-FU): 40%; constipation relief rate ([3]; 100 mg/kg oral, 6 hours before irinotecan and 6 hours after irinotecan): 80%; constipation relief rate ([3]; 150 mg/kg oral, 6 hours before irinotecan and 6 hours after irinotecan): 60%; diarrhea relief rate ([4]; 25 mg/kg oral twice a day for 3 days): 40%; diarrhea relief rate ([4]; 50 mg/kg oral twice a day for 4 days): 40%; diarrhea relief rate ([4]; 100 mg/kg oral twice a day for 3.5 days): 50% |
